Tested on: Male C57BL6 adult mice
Test: Effect of sbg1 peptide on behavior of mice (locomotor and stereotypy movements)
Type: in vivo
Conditions: 50 μg peptide intraperitoneally in 200 μl saline, n=4/peptide, FIG. 18
Method: In one example, the present inventors have tested sbg1 peptides by injection into mice. An sbg1 peptide comprising amino acid positions 124 to 153 of SEQ ID No 34 was injected peritoneally into adult mice as described herein in Example 7. […] Because the onset of stereotypy was variable, data are presented as the average of stereotypy for observations over the entire time period.
Animals: Male C57BL6 adult mice (approximately 6 weeks old)
Peptides: sbg1 peptide: • NH2-[…]-COOH (SEQ ID NO:232) • Control 1: NH2-[…]-COOH (SEQ ID NO:233) • Control 2: NH2-MHMKTILGPRLGLGE-COOH (SEQ ID NO:234)
Protocol: • 1. Inject mice intraperitoneally with 50 μg peptide in 200 μl sterile physiological saline (n=4/peptide). • 2. Place mice in clean empty cages containing no litter, and only a small test tube rack. The cages are covered with a plastic sheet to enable taking photographs and video-tracking. • 3. Observe behavior for one minute from t=5 min up to t=45 min, as indicated. Any locomoter or stereotypy movements were recorded as positive over 1 min intervals. Locomoter movements include climbing, and rearing while stereotypy movements include grooming and scratching. At the end of the experiment, the number of movements were added up for each animal.
Results: • 1. […]

In the case of “NH2-QPLERMWTCNYNQQKDQSCNHKEITSTKAE-COOH (H-QPLERMWTCNYNQQKDQSCNHKEITSTKAE-OH; cysteine pairing not given here; listed as Homo sapiens) [sbg1 peptide]”, the “frequency of movements (locomotor activity) over the time course of the experiment” value (average movements at 5, 10, 15 min compared with 30, 35, 40, 45 min) is reported as “decrease in the frequency of their movements” and the “stereotypy (grooming and scratching movements)” value (observed t=5 to 45 min, effect most prominent during the last period) is reported as “increased stereotypy”.

From patent US7371811B2, “Schizophrenia associated genes, proteins and biallelic markers” (Serono Genetics Institute S.A., priority 1998, dated 2008)
